Measurements as given in patent US7247444B2, “Use of interleukin-19 to treat cervical cancer” (ZymoGenetics, Inc., priority 2002, dated 2007).

System: HeLa299
Assay: HeLa299 cytoxicity assay (MTT readout)
Type: cell-based
Details: HeLa299 cells, 72 hrs, complete growth media
Protocol: We tested IL-19 in a HeLa299 cytoxicity assay to measure the ability of IL-19 to prevent cells from growing during normal growth conditions. We used MTT reagent (Promega, Madison, USA) as our detection and readout for this cell inhibition assay. Procedure of a cytoxicity assay: • Day 1—Plate cells out in complete growth media (with serum) at 5000 cells/well in a 96 well format and let them incubate overnight at 37 degrees and 5% CO2. • Day 2—Dump off media and add a dose response of appropriate ligands in complete growth media (IL-19 at 10, 100, and 1000 ng/ml.), along with a positive control retinoic acid (100 uM) in complete growth media, while leaving some wells in complete growth media as controls of how the cells normally grow under normal conditions. Put the cells in incubator and let the assay go for 72 hrs. • Day 5—Add 15 ul/well of MTT reagent, let cells inc. for 4 hrs., then add 100 ul of stop solution, let cells inc. for an additional 1 hr., then read the plate on a multilabel counter (Victor2, PerkinElmer Life Sciences Inc., Boston). The MTT protocol will give you two readings, one at a 650 wavelength (background) and one at a 572 wavelength. Subtract the 650 reading from the 572 reading to get your actual output. These numbers are averaged and converted to a % inhibition value.

| Molecule | inhibition at 100 µM (retinoic acid 100 uM) [%] | maximal inhibition of growth (IL-19 dose response 10, 100, and 1000 ng/ml) [%] |
| --- | --- | --- |
| CC1=C(/C=C/C(C)=C/C=C/C(C)=C/C(=O)O)C(C)(C)CCC1 [Retnoic Acid, retinoic acid] | 53 |  |
| IL-19: interleukin-19 polypeptide, SEQ ID NO:2; mature secreted form from amino acid 23 (His) to 177 (Ala) (protein, listed as Homo sapiens) MKLQCVSLWLLGTILILCSVDNHGLRRCLISTDMHHIEESFQEIKRAIQAKDTFPNVTILSTLETLQIIKPLDVCCVTKNLLAFYVDRVFKDHQEPNPKILRKISSIANSFLYMQKTLRQCQEQRQCHCRQEATNATRVIHDNYDQLEVHAAAIKSLGELDVFLAWINKNHEVMSSA |  | 38 |
